Laboratory results published in patent US8435962B2, “Triacetyl-3-hydroxyphenyladenosine and its use for regulating blood fat” (Institute of Mataria Medica, Chinese Academy of Medical …, priority 2009, dated 2013).

Columns and labels:
[1] = tested on: hyperlipidemia rats; test: Effects on plasma lipid in hyperlipidemia rats (high-fat diet); format: in vivo, rat; details: 2 mg/kg intragastric, 4 weeks;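 also: rats kept on high-fat chow for 4 weeks before dosing, serum taken from abdominal aorta after a 12 h fast at end of treatment, controls given vehicle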
Protocol: (§2) After a week of accommodation, except control group (20 rat), all the rats (120 rats) were fed with high-fat laboratory chow.
(§3) After four weeks high-fat diet modeling, rats were treated with different drugs by intragastric administration. Control animals received an equal volume of vehicle.
(§4) At the end of 4 weeks drug treatment, animals were fasted for 12 hours before anesthetizing by intraperitoneal injection of pentobarbitale sodium (45 mg/kg), and anticoagulated by 100 U/kg heparin through caudal vein injection. Blood samples were collected from the abdominal aorta within 15 min, and serum was separated. Serum TC, TG, HDL-C, LDL-C, ALT, FFA were detected. Liver and the fat pad behind the belly were separated and weighed, the liver and retroperitoneal fat were weighed too. […] The left rats (10 rats each group) drug treatment was withdrawn while high-fat diet modeling continued. Two weeks later, blood sample was collected from the orbit, and serum TC, TG were detected.

[2] = tested on: hyperlipidemia rats; test: Effects on retroperitoneal fat weight of hyperlipidemic rats; format: in vivo, rat; details: hyperlipidemic rats, 2 mg/kg intragastric, 4 weeks
Excerpt: (§1) Control animals received an equal volume of vehicle.

[3] = tested on: hyperlipidemia rats; test: Effects on hepatic SOD activity and MDA content of hyperlipidemia rats; format: in vivo, rat; details: 2 mg/kg intragastric, 4 weeks
Excerpt: as §1

[4] = tested on: hyperlipidemia rats; test: Serum lipid of hyperlipidemia rats after withdrawal from drugs for 2 weeks; format: in vivo, rat; details: rats, 2 mg/kg; 2 weeks after drug withdrawal, high-fat diet continued
Protocol: as §2, §3, §4

[5] = tested on: hyperlipidemia hamsters; test: Effects on plasma lipid in hyperlipidemia hamsters (high-fat diet); format: in vivo, hamster; details: 2 mg/kg intragastric, 4 weeks;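 also: hamsters given high-fat chow for four weeks, then dosed by gavage, plasma lipids measured in abdominal aortic blood after a 12 h fast, compared with vehicle-treated controls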
Protocol: (§5) After a week of accommodation, except control group (n=12) all the hamsters (n=72) were fed with high-fat laboratory chow.
as §3
(§6) At the end of 4 weeks drug treatment, animals were fasted for 12 hours (10 of each group). The next day, they were anesthetized by intraperitoneal injection of pentobarbitale sodium (45 mg/kg). Blood samples were collected from the abdominal aorta within 15 min, and plasma was separated. Plasma TC, TG, HDL-C, LDL-C, ALT, FFA were detected. Liver and the retroperitoneal fat were separated and weighed, the liver and fat index were calculated. Liver SOD and MDA were detected by kit after homogenized. The left hamsters (10 each group) drug treatment was withdrawn while high-fat diet modeling continued. Two weeks later, blood sample was collected from the orbit and serum TC and TG were detected.

[6] = tested on: hyperlipidemia hamsters; test: Effect on retroperitoneal fat of hyperlipidemia hamsters; format: in vivo, hamster; details: 2 mg/kg intragastric, 4 weeks
Protocol: as §5, §3, §6

[7] = tested on: hyperlipidemia hamsters; test: Effects on hepatic SOD activity and MDA concentration in hyperlipidemic hamsters' livers; format: in vivo, hamster; details: 2 mg/kg intragastric, 4 weeks
Protocol: as §5, §3, §6

[8] = tested on: hyperlipidemia hamsters; test: Serum lipid level in hyperlipidemic hamsters after drug discontinuance (2 weeks); format: in vivo, hamster; details: hamsters, 2 mg/kg; 2 weeks after drug discontinuance, high-fat diet continued
Protocol: as §5, §3, §6

[9] = tested on: hyperlipidemia rats; test: Effects on liver weight and serum ALT activity of hyperlipidemia rats; details: 2 mg/kg intragastric, 4 weeks
Protocol: as §2, §3, §4

CCC(C)(C)C(=O)O[C@H]1C[C@@H](C)C=C2C=C[C@H](C)[C@H](CC[C@@H]3C[C@@H](O)CC(=O)O3)[C@H]21 [Simvastatin, reference compound]
FFA [1]: 0.96 ± 0.39 mmol/L
HDL-C [1]: 0.59 ± 0.13 mmol/L
HDL/LDL [1]: 0.50 ± 0.16
LDL-C [1]: 1.24 ± 0.24 mmol/L
TC [1]: 2.22 ± 0.36 mmol/L
TG [1]: 0.76 ± 0.21 mmol/L
Fat weight (retroperitoneal fat) [2]: 0.70 ± 0.28 g/100 g body weight
hepatic MDA [3]: 9.29 ± 2.73 nmol/mg protein
hepatic SOD [3]: 99.5 ± 20.2 U/g pr
TC [4]: 2.14 ± 0.33 mmol/L
TG [4]: 0.94 ± 0.24 mmol/L
HDL-C [5]: 1.12 ± 0.21 mmol/L
HDL/LDL [5]: 0.45 ± 0.12
LDL-C [5]: 2.57 ± 0.53 mmol/L
TC [5]: 4.46 ± 1.63 mmol/L
TG [5]: 3.20 ± 1.70 mmol/L
retroperitoneal fat [6]: 0.97 ± 0.19 g/100g
hepatic MDA [7]: 4.48 ± 0.96 nmol/mg protein
hepatic SOD [7]: 94.6 ± 38.0 U/g pr
TC [8]: 4.91 ± 1.18 mmol/L
TG [8]: 4.58 ± 1.01 mmol/L
Liver weight ([9]; 'rat' in hamster Table 9): 3.96 ± 0.93 g/100 g body weight
Liver weight ([9]; hyperlipidemia rats): 3.96 ± 0.93 g/100 g body weight
